# Assay results reported in ChEMBL document CHEMBL6177993, “De Novo 3-(Phenylcarbamoyl) Benzoate Analogues: Efficacy against Multidrug-Resistant S. aureus and Elucidation of the Biodistribution Profile” (J Med Chem, 2025).
# Assays:
# Assay type in all cases: functional
# Conditions in all cases: time 18-24 hrs
# Pseudomonas aeruginosa = assay: Antibacterial activity against Pseudomonas aeruginosa ATCC 27853 assessed as reduction in bacterial growth measured after 18 to 24 hrs by broth microdilution method
# Escherichia coli = assay: Antibacterial activity against Escherichia coli ATCC 25922 assessed as reduction in bacterial growth measured after 18 to 24 hrs by broth microdilution method
# Bacillus subtilis = assay: Antibacterial activity against Bacillus subtilis IITKSM1 assessed as reduction in bacterial growth measured after 18 to 24 hrs by broth microdilution method
# Staphylococcus aureus = assay: Antibacterial activity against Staphylococcus aureus ATCC 29213 assessed as reduction in bacterial growth measured after 18 to 24 hrs by broth microdilution method
# Enterococcus faecalis = assay: Antibacterial activity against Enterococcus faecalis ATCC 35550 assessed as reduction in bacterial growth measured after 18 to 24 hrs by broth microdilution method
# Klebsiella pneumoniae = assay: Antibacterial activity against Klebsiella pneumoniae BAA 1705 assessed as reduction in bacterial growth measured after 18 to 24 hrs by broth microdilution method
# Acinetobacter baumannii = assay: Antibacterial activity against Acinetobacter baumannii BAA 1605 assessed as reduction in bacterial growth measured after 18 to 24 hrs by broth microdilution method
Structure (SMILES),MIC (Pseudomonas aeruginosa) [µg/mL],MIC (Escherichia coli) [µg/mL],MIC (Bacillus subtilis) [µg/mL],MIC (Staphylococcus aureus) [µg/mL],MIC (Enterococcus faecalis) [µg/mL],MIC (Klebsiella pneumoniae) [µg/mL],MIC (Acinetobacter baumannii) [µg/mL]
CCOc1cc(C(c2ccccc2)c2ccccc2)c(NC(=O)c2cccc(C(=O)O)c2)c(C(c2ccccc2)c2ccccc2)c1,> 64,> 64,1,64,64,> 64,> 64
CC(c1ccccc1)c1cc(Cl)cc(C(C)c2ccccc2)c1NC(=O)c1cccc(C(=O)O)c1 (stereo unspecified),> 64,> 64,> 64,> 64,> 64,> 64,> 64
CC(c1ccccc1)c1cc(C(C)(C)C)cc(C(C)c2ccccc2)c1NC(=O)c1cccc(C(=O)O)c1 (stereo unspecified),> 64,> 64,> 64,> 64,> 64,> 64,> 64
O=C(O)c1cccc(C(=O)Nc2c(C(c3ccccc3)c3ccccc3)cc([N+](=O)[O-])cc2C(c2ccccc2)c2ccccc2)c1,> 64,> 64,4,4,8,> 64,> 64
O=C(O)c1cccc(C(=O)Nc2c(C(c3ccccc3)c3ccccc3)cc(F)cc2C(c2ccccc2)c2ccccc2)c1,> 64,> 64,1,4,2,> 64,> 64
COc1cc(C(c2ccccc2)c2ccccc2)c(NC(=O)c2cccc(C(=O)O)c2)c(C(c2ccccc2)c2ccccc2)c1,> 64,> 64,32,8,64,> 64,> 64
O=C(O)c1cccc(C(=O)Nc2c(C(c3ccccc3)c3ccccc3)cc(OC(F)F)cc2C(c2ccccc2)c2ccccc2)c1,> 64,> 64,1,4,2,> 64,> 64
O=C(O)c1cccc(C(=O)Nc2c(C(c3ccccc3)c3ccccc3)cc(C(c3ccccc3)c3ccccc3)cc2C(c2ccccc2)c2ccccc2)c1,> 64,> 64,64,> 64,8,> 64,> 64
O=C(O)c1cccc(C(=O)Nc2c(C(c3ccccc3)c3ccccc3)cc(OC(F)(F)F)cc2C(c2ccccc2)c2ccccc2)c1,> 64,> 64,2,2,2,> 64,> 64
CCCCc1cc(C(c2ccccc2)c2ccccc2)c(NC(=O)c2cccc(C(=O)O)c2)c(C(c2ccccc2)c2ccccc2)c1,> 64,> 64,8,16,2,> 64,> 64
Cc1cc(C(c2ccccc2)c2ccccc2)c(NC(=O)c2cccc(C(=O)O)c2)c(C(c2ccccc2)c2ccccc2)c1,> 64,> 64,64,4,64,> 64,> 64
O=C(O)c1cccc(C(=O)Nc2c(C(c3ccccc3)c3ccccc3)cc(Br)cc2C(c2ccccc2)c2ccccc2)c1,> 64,> 64,2,4,2,> 64,> 64
O=C(O)c1cccc(C(=O)Nc2c(C(c3ccccc3)c3ccccc3)cc(C(F)(F)F)cc2C(c2ccccc2)c2ccccc2)c1,> 64,> 64,1,> 64,16,> 64,> 64
